# Laboratory results as given in paper PMC11432795, “Mutagenesis of the Peptide Inhibitor of ASIC3 Channel Introduces Binding to Thumb Domain of ASIC1a but Reduces Analgesic Activity” (Marine Drugs, 2024).
# Positions of bridges follow the written chain, without caps; N, C: chain ends. Residues, ends and D or L forms follow the SMILES beside them.
# What was measured:
# [1] = target: T1, rat ASIC1a/3 heteromeric channels (Rattus norvegicus, UniProt O35240+P55926); assay: Two-electrode voltage clamp, rat ASIC1a/3 heteromeric channels in X. laevis oocytes; type: cell-based
# T1 construct: expressed in transfected cells; host or cells: Xenopus laevis oocytes co-injected with ASIC1a and ASIC3 mRNA (1:5)
# T1 sequence (P55926 1-526): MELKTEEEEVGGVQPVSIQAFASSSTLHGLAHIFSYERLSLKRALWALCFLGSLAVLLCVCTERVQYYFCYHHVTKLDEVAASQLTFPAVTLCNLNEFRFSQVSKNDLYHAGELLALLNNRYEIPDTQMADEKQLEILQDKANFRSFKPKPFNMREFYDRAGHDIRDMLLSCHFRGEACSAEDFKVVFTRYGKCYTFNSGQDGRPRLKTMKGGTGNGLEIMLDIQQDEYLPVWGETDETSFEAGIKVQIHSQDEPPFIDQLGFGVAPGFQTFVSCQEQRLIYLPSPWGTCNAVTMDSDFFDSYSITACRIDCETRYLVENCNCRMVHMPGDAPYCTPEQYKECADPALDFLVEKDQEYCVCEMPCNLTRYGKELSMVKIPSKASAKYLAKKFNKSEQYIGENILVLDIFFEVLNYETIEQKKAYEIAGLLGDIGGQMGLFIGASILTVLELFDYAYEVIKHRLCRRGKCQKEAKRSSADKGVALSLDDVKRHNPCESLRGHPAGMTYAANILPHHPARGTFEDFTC
# T1 sequence (O35240 1-533): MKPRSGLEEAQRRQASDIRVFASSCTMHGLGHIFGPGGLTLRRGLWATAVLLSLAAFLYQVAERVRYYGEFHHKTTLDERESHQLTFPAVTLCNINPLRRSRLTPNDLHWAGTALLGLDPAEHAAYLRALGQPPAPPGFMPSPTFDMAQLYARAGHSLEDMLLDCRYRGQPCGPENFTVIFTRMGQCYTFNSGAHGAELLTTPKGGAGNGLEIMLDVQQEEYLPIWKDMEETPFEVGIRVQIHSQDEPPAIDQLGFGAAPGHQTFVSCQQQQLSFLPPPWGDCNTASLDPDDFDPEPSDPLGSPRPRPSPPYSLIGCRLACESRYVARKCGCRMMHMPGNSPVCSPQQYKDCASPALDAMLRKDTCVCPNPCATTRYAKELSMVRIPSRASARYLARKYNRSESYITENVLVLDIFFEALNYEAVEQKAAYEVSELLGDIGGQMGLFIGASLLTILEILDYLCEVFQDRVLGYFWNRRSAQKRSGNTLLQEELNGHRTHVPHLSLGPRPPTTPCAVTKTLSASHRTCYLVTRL
# From the text: Figure 4 The effect of the mutant peptide A23K on rat heteromeric ASIC1a/3 channels. […] The depicted currents were induced by a pH 5.5 stimulus following a conditioning pH of 7.4, with the peptide applied for 30 s before the pH stimulus. (B) Dose–response curve for the inhibitory effect of the mutant peptide. Each data point represents data from 6 cells. Data are presented as mean ± S.E.M.
# A small portion of the ovary was isolated from frogs under anesthesia induced by a 0.17% solution of procaine methanesulphonate (MS222) (Sigma), followed by treatment with collagenase (1 mg/mL) at room temperature for 2 h. Oocytes at stages IV and V, devoid of follicular membranes, were transferred to ND-96 medium (containing 96 mM NaCl, 5 mM HEPES, 2 mM KCl, 1.8 mM CaCl2, 1 mM MgCl2, pH 7.4). mRNA synthesis was performed from pcDNA3.1 vectors (Invitrogen, Carlsbad, CA, USA) containing the rat ASIC3 gene, as well as pCI vectors containing genes for rat ASIC1a, its mutant analogues, and ASIC1b. mRNA (2.5–10 ng) was then injected into the oocytes. For the ASIC1a/3 heteromeric channels, the mRNA encoding the ASIC1a and ASIC3 subunits were injected in a 1:5 ratio, respectively. Subsequently, the oocytes were incubated for 2–3 days at a temperature of 17–19 °C in ND96 medium supplemented with gentamicin and streptomycin (20 µg/mL each).
# Whole-cell electrophysiological recordings of ASIC channels were conducted using a two-electrode voltage-clamp setup. Microelectrodes were filled with 3 M KCl. Recordings from oocytes were carried out at a holding potential of −50 mV, with data filtered at 10 Hz and sampled at a rate of 100 Hz using an L780M ADC (LCard, Moscow, Russia). The synchronized delivery of solutions into the chamber and recording of electrophysiological results were carried out using in-house software v.2. Activation of ASIC channels occurred through rapid pH changes in the solution, achieved by replacing the working solution in the chamber with ND96-based solutions at varying pH levels. Specifically, HEPES was substituted with 10 mM MES for pH 5.5–6.5 and MOPS for pH 6.7–7.0.
# Fresh peptide solutions were meticulously prepared in ND96 buffer with a pH of 7.43 immediately before experiments, with strict control over the pH levels. Peptides were applied for 30 s at a conditioning pH of 7.43 before acid stimulation of the channel. The interval between applications was maintained at a minimum of 1.5 to 2 min.
# Electrophysiological data analysis was conducted using OriginPro 2018 software (OriginLab, Northampton, MA, USA). Dose–response relationships for Ugr9a-1, S16K, and A23K peptides were fitted using a Hill function: F1(x) = A − A/(1 + (x/IC50)^nH), where F1(x) represents the amplitude of the current at concentration x of the peptide, A is the maximum amplitude of the current, IC50 is the half-maximum inhibitory concentration of the peptide, and nH is the Hill coefficient.
# [2] = All pain tests conducted (overall); type: in vivo, ICR mice; settings: i.m.
# Description: Adult male ICR mice (Animal Breeding Facility Branch of Shemyakin–Ovchinnikov Institute of Bioorganic Chemistry, Russian Academy of Sciences, Pushchino, Russia), weighing 20–25 g, were utilized. Animals were housed under controlled conditions, with a room temperature of 23 ± 2 °C, a 12 h light–dark cycle, and ad libitum access to food and water. Test substances were dissolved in saline. Peptides (Ugr9-1 and A23K at doses of 0.002, 0.02, and 0.2 mg/kg) and saline (for the control group) were administered intramuscularly 60 min prior to testing.
# The abdominal constriction test of visceral pain (acetic acid-induced writhing pain model) and hyperalgesia induced by complete Freund’s adjuvant (CFA-induced inflammatory pain model) were performed as previously described.
# For the von Frey filaments test, mice were positioned in a plastic chamber with access to the inflamed hind paw surface and an electronic von Frey filament (BIO-EVF, Bioseb, Vitrolles, France) was applied with gradually increasing pressure until withdrawal. Data, expressed as the strength of the applied mechanical stimulus from three applications, were averaged, with intervals between exposures of at least 1 min.
# Statistical analysis was conducted using analysis of variance (ANOVA) with post hoc Tukey’s test, and data are presented as mean ± standard deviation (S.D.).
structure (smiles),measurement,setting,value
"CC[C@H](C)[C@H](N)C(=O)N[C@@H](CO)C(=O)N[C@H](C(=O)N[C@@H](CC(=O)O)C(=O)N1CCC[C@H]1C(=O)N1CCC[C@H]1C(=O)N[C@H]1CSSC[C@@H]2NC(=O)[C@H](CC(N)=O)NC(=O)CNC(=O)[C@H](CO)NC(=O)CNC(=O)[C@H](CC(=O)O)NC(=O)[C@H](CCCNC(=N)N)NC(=O)[C@H](Cc3c[nH]cn3)NC(=O)[C@H](Cc3ccc(O)cc3)NC(=O)[C@H](CSSC[C@@H](C(=O)NCC(=O)N[C@@H](C)C(=O)N[C@H](C(=O)O)C(C)C)NC(=O)CNC(=O)[C@H](Cc3ccc(O)cc3)NC(=O)[C@H](CCCCN)NC(=O)[C@H](CC(=O)O)NC(=O)[C@H](Cc3ccc(O)cc3)NC(=O)[C@H](C(C)C)NC2=O)NC(=O)[C@H](Cc2ccccc2)NC(=O)[C@H](CCCNC(=N)N)NC1=O)[C@@H](C)CC [A23K] (H-ISIDPPCRFCYHRDGSGNCVYDKYGCGAV-OH; disulfide 7-19, 10-26)",inhibitory effect on heteromeric channels compared to homomeric ASIC1a,[1]; ASIC1a/3 versus homomeric ASIC1a,approximately 1.6 -fold
same,inhibitory effect on heteromeric channels compared to homomeric ASIC3,[1]; ASIC1a/3 versus homomeric ASIC3,~2.2 -fold
same,nH,"[1]; inhibition of rat ASIC1a/3, pH 5.5 stimulus, conditioning pH 7.4, mean ± S.E.M., 6 cells",1.6 ± 0.2
same,IC50,"[1]; rat ASIC1a/3 heteromer, X. laevis oocytes (mRNA 1:5), pH 5.5 stimulus, conditioning pH 7.4, peptide 30 s, mean ± S.E.M., 6 cells",4.2 ± 0.6 µM
same,wash procedure required to restore ASIC1a/3 function,[1]; washout after peptide,extended wash procedure required to restore ASIC1a/3 function
same,analgesic effect compared to the wild-type peptide,[2],significantly less pronounced analgesic effect compared to the wild-type peptide
